Data from PubChem BioAssay AID624167 (Sanford-Burnham Center for Chemical Genomics, 2012).
Active and inactive are the calls of the source.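 Rule for the calls: active = mean IC50 for reducing PEG3 promoter reporter signal at or below a set limit, with IC50 above the limit in both counter screens; inactive = the rest, including counter screen hits.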

Experiments:
[1] = inhibition of PEG-3 promoter-driven reporter – cell-based, HeLa, luciferase, CREF/GAPDH counter-screen panel, dose response (AID 624167); conditions: CREF/GAPDH counter-screens; GAPDH; mean of runs
GAPDH = assay: as above; conditions: CREF/GAPDH counter-screens
PEG-3 [2] = molecular target: PEG-3 (UniProt Q6IN02); assay: as above; conditions: HeLa PEG-Prom luciferase reporter, overnight, CREF/GAPDH counter-screens, mean of runs
Chain of PEG-3 (UniProt Q6IN02) (Q6IN02 whole entry, looked up): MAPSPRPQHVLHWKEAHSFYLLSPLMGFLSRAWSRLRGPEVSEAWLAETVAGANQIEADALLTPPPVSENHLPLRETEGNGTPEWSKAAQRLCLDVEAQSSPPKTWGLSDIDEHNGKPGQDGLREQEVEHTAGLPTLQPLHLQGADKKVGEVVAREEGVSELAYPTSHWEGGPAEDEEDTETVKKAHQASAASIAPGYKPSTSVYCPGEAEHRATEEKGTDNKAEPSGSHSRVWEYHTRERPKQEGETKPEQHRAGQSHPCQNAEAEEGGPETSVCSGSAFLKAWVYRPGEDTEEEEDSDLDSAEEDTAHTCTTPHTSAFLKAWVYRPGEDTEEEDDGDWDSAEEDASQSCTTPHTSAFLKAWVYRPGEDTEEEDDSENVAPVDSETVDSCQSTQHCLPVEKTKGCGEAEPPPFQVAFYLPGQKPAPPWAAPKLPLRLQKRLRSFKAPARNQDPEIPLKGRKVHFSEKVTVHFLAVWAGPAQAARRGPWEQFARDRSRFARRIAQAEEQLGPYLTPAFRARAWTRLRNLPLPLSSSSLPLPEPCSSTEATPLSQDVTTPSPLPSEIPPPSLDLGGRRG

PEG-3 [3] = assay: as above; conditions: HeLa PEG-Prom luciferase reporter, overnight, CREF/GAPDH counter-screens
Rat fibroblasts (CREF) = assay: as above; conditions: CREF/GAPDH counter-screens
[4] = run 1, dose range 1, individual replicate IC50 per panel
[5] = run 2, dose range 1, individual replicate IC50 per panel

| SMILES | IC50 [1] | IC50 (GAPDH; [4]) [µM] | IC50 (GAPDH; [5]) [µM] | IC50 (PEG-3 [2]) [µM] | IC50 (PEG-3 [3]; [4]) [µM] | IC50 (PEG-3 [3]; [5]) [µM] | IC50 (Rat fibroblasts (CREF); mean of runs) | IC50 (Rat fibroblasts (CREF); [4]) [µM] | IC50 (Rat fibroblasts (CREF); [5]) [µM] |
| --- | --- | --- | --- | --- | --- | --- | --- | --- | --- |
| O=c1c2ccccc2sc2nc(CCl)nn12 | 11.2 µM | 11.9 | 10.6 | 9.36 | 9.23 | 9.49 | > 100 µM (inactive) | > 100 | > 100 |
| COc1ccc(/C=C2/CCCC(CN(C)C)C2=O)cc1 (stereo not given) | inactive | 38.2 | 23.9 | 9.68 | 11.3 | 8.07 | 28.8 µM | 23.6 | 34 |
| CCc1ccn2cc(-c3ccc4c(c3)OCO4)nc2c1 | 6.32 µM | 3.75 | 8.89 | 7.2 | 1.97 | 12.4 | 50.4 µM (inactive) | 0.748 | > 100 |
| CC(=O)c1sc2c(c1OC(=O)c1ccc(Cl)cc1Cl)c(=O)n(-c1ccccc1)c(=S)n2-c1ccccc1 | 4.7 µM | 2.85 | 6.56 | 10.2 | 11.2 | 9.26 | > 100 µM (inactive) | > 100 | > 100 |
| CN(C(=O)COC(=O)/C=C/c1cccc([N+](=O)[O-])c1)C1CCS(=O)(=O)C1 (stereo not given) | > 100 µM (inactive) | > 100 | > 100 | 0.452 | 0.452 | 0.452 | > 100 µM (inactive) | > 100 | > 100 |
| COCCCNC(=O)c1ccc(Cn2c(=O)c3ccccc3n(Cc3ccccc3C#N)c2=O)cc1 | > 100 µM (inactive) | > 100 | > 100 | 4.18 | 4.1 | 4.27 | > 100 µM (inactive) | > 100 | > 100 |
| CCC(c1nnnn1-c1ccc2c(c1)OCCO2)N1CCC(n2c(=O)[nH]c3ccccc32)CC1 (stereo not given) | 10.8 µM | 9.08 | 12.6 | 7.33 | 4.46 | 10.2 | > 100 µM (inactive) | > 100 | > 100 |
| COc1ccc(NC(=O)c2cc(-c3ccccn3)nc3ccccc23)cc1S(=O)(=O)N(C)C | inactive | > 100 | 43.6 | 0.724 | 1.12 | 0.329 | > 100 µM (inactive) | > 100 | > 100 |
| OCCCNc1nccc(-c2cc(Nc3cccc(Cl)c3)ncn2)n1 | inactive | > 100 | 0.913 | 0.497 | 0.661 | 0.333 | 59.6 µM (inactive) | 19.1 | > 100 |
| COc1cccc(OC)c1C(=O)Nc1cc(C)nn1-c1nc2ccccc2[nH]1 | > 100 µM (inactive) | > 100 | > 100 | 3.1 | 2.08 | 4.13 | > 100 µM (inactive) | > 100 | > 100 |
